Publication PMC10949195, “Exponential Combination of a and e/g Intracellular Peptide Libraries Identifies a Selective ATF3 Inhibitor” (ACS Chemical Biology, 2024)

Assays:
[1] = CD thermal denaturation of peptide in isolation; type: physicochemical; settings: CD at 222 nm; 150 μM total peptide; 10 mM potassium phosphate, 100 mM potassium fluoride, pH 7
From the text: Following the observed significant increase in global secondary structure content for the ATF3-ATF3W_aeg complex relative to component peptides (Figure 6), we next analyzed the stability of the complex by undertaking thermal denaturation experiments (Figure 7). […] Moreover, consistent with spectral data, the clear increase from the average profile of the component peptides relative to that of the measured is most pronounced in the combined construct (Figure 7, red hash vs black). This provides robust additional evidence for a preferential interaction between ATF3 and ATF3W_aeg that is improved over either the core a or electrostatic e/g constructs.
Shown are thermal stabilities of peptide pairs measured via temperature dependence of the CD signal at 222 nm. The thermal denaturation profiles for (a) ATF3-ATF3W_a, (b) ATF3-ATF3W_eg, and (c) ATF3-ATF3W_aeg show a substantial increase in the transition midpoint (Tm = 59 °C) relative to component peptides (black vs red hash). Experiments were performed in 10 mM potassium phosphate and 100 mM potassium fluoride (pH 7.0). All spectra were recorded at 1 °C increments at a total peptide concentration of 150 μM and fitted to a two-state denaturation model. […]

ATF3 = molecular target: T1, ATF3 (Homo sapiens, UniProt P18847); experiment: CD spectra of ATF3-ATF3W_aeg complex; type: binding; settings: 1:1 stoichiometry with ATF3, 150 μM total peptide, pH 7.0
T1 construct: We focus on the selective targeting of the ATF3 leucine zipper dimerization domain using intracellular peptide library screening; made in house; host or cells: chemical solid-phase peptide synthesis (no expression host)
T1 sequence (P18847 110-143): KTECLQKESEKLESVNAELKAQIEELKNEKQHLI
Procedure: ATF3, ATF3W_a, and ATF3W_eg and combined hit sequence ATF3W_aeg were synthesized using solid phase peptide synthesis, purified by RP-HPLC, and verified for correct mass using ESI-MS (Figure S3), after which circular dichroism (CD) was used to characterize both ATF3 and antagonist peptides for helicity and interactions as homodimers, as well as heterodimers with the ATF3 target. Global secondary analysis of both homodimeric and heterodimeric systems was carried out at a total peptide concentration of 150 μM to keep equimolar concentrations of each component helix. The 222/208 ratio was used to provide evidence on whether the helices were likely to be monomeric or adopt quaternary structure.[13] […] Furthermore, incubation of ATF3 with ATF3W_aeg elicited a significant conformational change in the sample relative to the average of the component peptides (Figure 6d black line vs red hash), providing compelling evidence for an interaction.[14] In addition, the component PCA hits were examined using CD.
Figure 6 CD spectra data indicates a ATF3-ATF3W_aeg interaction. […] Spectra were next measured at 20 and 5 °C and again post-thermal denaturation (PM 20 °C to establish reversible that unfolding is fully reversible) at a total peptide concentration of 150 μM and presented as mean residue ellipticity (MRE). […]

For “Ac-ELAALEQKAYALKQENAALEKEVAALEQKIAALK-NH2 (N-terminus and C-terminus assumed) [ATF3W_aeg]”, the “self-association in isolation (thermal denaturation profile)” value [1] was “inability of ATF3W_aeg to form a stable homodimer in isolation”, the “222/208 ratio of ATF3-ATF3W_aeg complex” value (ATF3) was 0.94 and the “fractional helicity (fH) of ATF3-ATF3W_aeg complex” value (ATF3) was roughly 68%.
